“Also recorded” adds a separate entry of the source. Read-outs that look alike come from different tables or passages of the source. Marks after values point to notes of the source that are not given here.
Legend:
[1] = tested on: insulin-like growth factor acid-labile subunit (ALS); test: Phase I trial: exploratory PD, ALS; assay type: in vivo, human; settings: for ALS % change from pre-dose / ALS mean change from pre-dose: Stage B, n=6
Experimental: (§1) As defined in the statistical analysis plan, the effect of ATL1103 on serum IGF-I was assessed as a change in IGF-I levels versus baseline (starting point) readings for those subjects who received treatment (ATL1103). Pre-dose baseline levels of IGF-I were recorded prior to the commencement of dosing and then measured at weekly intervals until the end of the monitoring period. […] Other exploratory objectives of the study investigated the drug's mechanism of action and broader pharmacological profile, including the pharmacodynamic effects on levels of growth hormone binding protein (GHBP), insulin-like growth factor binding protein 3 (IGFBP-3), acid labile subunit of the insulin-like growth factor binding protein complex (ALS), and growth hormone (GH), as well as in vitro mitogenic and apoptotic parameters.

[2] = tested on: insulin-like growth factor binding protein 3 (IGF-BP3); test: Phase I trial: exploratory PD, IGF-BP3; assay type: in vivo, human; settings: for IGF-BP3 % change from pre-dose / IGF-BP3 mean change from pre-dose: Stage B, n=6
Experimental: as §1

IGF-I = test: Phase I trial: pharmacodynamic effect on serum IGF-I levels; assay type: in vivo, human; settings: for Serum IGF-I change from pre-dose, Mean ± SD / Serum IGF-I % change from pre-dose: n=6
Text: A secondary objective of this study was to obtain data on the pharmacodynamic effects of ATL1103 on the IGF-I levels in the blood of the trial subjects. Reduction of increased levels of serum IGF-I to normal is the therapeutic endpoint in the treatment of the growth disorder acromegaly, and reducing the effects of IGF-I has a potential role in the treatment of diabetic retinopathy, nephropathy and certain forms of cancer.
as §1

[3] = tested on: insulin-like growth factor II (IGF-II); test: Phase I trial: exploratory PD, IGF-II; assay type: in vivo, human; settings: Stage B, n=6
[4] = human, in vivo
Experimental: (§3) The primary objective of the Phase I trial was to assess the safety, tolerability and pharmacokinetics (pK) of ATL1103.
(§4) The Phase I trial was a randomized, placebo controlled, double blind study of single ascending doses and multiple doses of ATL1103 in healthy adult male subjects aged between 18 and 45 years. In the single ascending dose stage of the trial, 24 subjects were administered four dose levels of ATL1103 as a single injection starting at 25 mg and escalating to 75, 250 and 400 mg or placebo. The multiple dose stage was undertaken in 12 subjects, 8 who were to receive six subcutaneous doses of 250 mg of ATL1103 and 4 subjects who received placebo administered on days 1, 3, 5, 7, 14 and 21. Subjects were monitored out to day 35.

[5] = tested on: growth hormone binding protein (GHBP); test: Phase I trial: exploratory PD, circulating GHBP; assay type: in vivo, human; settings: for GHBP % change from pre-dose / GHBP mean change from pre-dose: Stage B, n=6
Experimental: as §1

[6] = human, in vivo, sc
Text: The Phase I trial was a randomized, placebo controlled, double blind study of single ascending doses and multiple doses of ATL1103 in healthy adult male subjects aged between 18 and 45 years. […] Subjects were monitored out to day 35.

[7] = tested on: serum insulin like growth factor I (IGF-I); test: Phase II trial in patients with acromegaly: serum IGF-I reduction; assay type: in vivo, human
Text: The primary endpoints or main purposes of the trial were (i) to evaluate the safety and tolerability of ATL1103 in patients with acromegaly, and (ii) to evaluate the single dose and multiple dose pharmacokinetic profiles of ATL1103 via the subcutaneous route in patients with acromegaly.

liver GHr RNA = test: Monotherapy and combination mouse study: relative liver GHR RNA; assay type: in vivo, mice; settings: week 3, p=0.001
Text: (§2) The GHr and IGF-I RNA data were statistically analysed using one-way ANOVA followed by Dunnetts test when comparing treated to saline control. The sIGF-I data were statistically analyzed using one-way […] comparisons.

[8] = tested on: human growth hormone receptor mRNA; test: Inhibition of human growth hormone receptor mRNA levels by antisense oligonucleotides, quantitative real-time PCR, MCF7 cells; assay type: cell-based; parameters: concentration or dose not given beside the values; settings: averages from three experiments
[9] = Phase I trial: safety and tolerability of subcutaneous ATL1103 in healthy adult male subjects
Experimental: as §3, §4

serum IGF-I = test: Monotherapy and combination mouse study: serum IGF-I; assay type: in vivo, mice
Text: as §2

liver IGF-I RNA = test: Monotherapy and combination mouse study: relative liver IGF-I RNA; assay type: in vivo, mice; settings: week 3, p=0.001
Text: as §2

growth hormone (GH) = test: Phase I trial: exploratory PD, growth hormone levels; assay type: in vivo, human; settings: listed as ATL1103
Experimental: as §1

[10] = ATL1103 12 mg/kg, 3 times in first week then 2 times weekly
[11] = ATL1103 25 mg/kg, 2 times weekly, compared to saline control

tcagggcattctttccattc (TCAGGGCATTCTTTCCATTC; chemistry not given here) [ISIS 227452]
effect on ALS ([1]; Phase I multiple dose stage): significantly reduced
ALS % change from pre-dose ([1]; Day 7): (−5%)
ALS mean change from pre-dose ([1]; Day 7): −115.3 mU/ml
ALS % change from pre-dose ([1]; Day 21): (−9%)
ALS mean change from pre-dose ([1]; Day 21): −160.7 mU/ml
ALS % change from pre-dose ([1]; Day 28): (−10%)
ALS mean change from pre-dose ([1]; Day 28): −188.7* mU/ml
effect on IGFBP-3 ([2]; Phase I multiple dose stage): significantly reduced
IGF-BP3 % change from pre-dose ([2]; Day 7): (−10%)
IGF-BP3 mean change from pre-dose ([2]; Day 7): −310.5** ng/ml
IGF-BP3 % change from pre-dose ([2]; Day 21): (−8%)
IGF-BP3 mean change from pre-dose ([2]; Day 21): −228.3* ng/ml
IGF-BP3 % change from pre-dose ([2]; Day 28): (−5%)
IGF-BP3 mean change from pre-dose ([2]; Day 28): -160.5 ng/mL
Serum IGF-I change from pre-dose, Mean ± SD (IGF-I; Stage B, 250 mg multiple dose, Day 3): +2.65 ± 9.47 nmol/L
trend of serum IGF-I levels versus baseline (IGF-I; Stage B, from day 14 on, listed as ATL1103): trend in reduction in IGF-I levels from day 14 to day 28; also recorded: For IGF-I there was a clear trend for mean levels to be lower than baseline on days D14, 21, 28, 35 of
Serum IGF-I % change from pre-dose (IGF-I; Stage B, Day 3): 12%
Serum IGF-I % change from pre-dose (IGF-I; Stage B, Day 5): 6%
Serum IGF-I change from pre-dose, Mean ± SD (IGF-I; Stage B, Day 5): +0.32 ± 7.42 nmol/L
Serum IGF-I % change from pre-dose (IGF-I; Stage B, Day 7): 6%
Serum IGF-I change from pre-dose, Mean ± SD (IGF-I; Stage B, Day 7): +0.77 ± 7.51 nmol/L
Serum IGF-I % change from pre-dose (IGF-I; Stage B, Day 14): −2%
Serum IGF-I change from pre-dose, Mean ± SD (IGF-I; Stage B, Day 14): -1.43 ± 7.19 nmol/L
Serum IGF-I % change from pre-dose (IGF-I; Stage B, Day 21): −7%
Serum IGF-I change from pre-dose, Mean ± SD (IGF-I; Stage B, Day 21): -3.40 ± 3.59 nmol/L
Serum IGF-I % change from pre-dose (IGF-I; Stage B, Day 28): −7%
Serum IGF-I change from pre-dose, Mean ± SD (IGF-I; Stage B, Day 28): -3.43 ± 7.53 nmol/L
Serum IGF-I % change from pre-dose (IGF-I; Stage B, Day 35): −1%
Serum IGF-I change from pre-dose, Mean ± SD (IGF-I; Stage B, Day 35): -1.9 ± 5.08 nmol/L
reduction in mean IGF-I levels versus baseline (IGF-I; day 21, p=0.034 one sided t-test): 7%
IGF-II % change from pre-dose ([3]; Day 7): (−14%)
IGF-II mean change from pre-dose ([3]; Day 7): −101.8*** ng/ml
IGF-II % change from pre-dose ([3]; Day 21): (−8%)
IGF-II mean change from pre-dose ([3]; Day 21): -57.5 ng/mL
IGF-II % change from pre-dose ([3]; Day 28): (−5%)
IGF-II mean change from pre-dose ([3]; Day 28): -29.2 ng/mL
injection site reactions, number of events [4]: adverse events were injection site reactions (13).
number of treatment-emergent adverse events (TEAE) [4]: There were 24 treatment-emergent adverse events (TEAE) in Stage A (19 in the 16 ATL1103-treated
overall safety and tolerability [4]: ATL1103 was considered safe and generally well tolerated at the doses used in the study
pain at injection site, number of events [4]: treated subjects most common adverse events reported were pain at injection site (6), headache
severity of TEAE [4]: subjects, 5 in the 8 placebo-treated subjects), all reported as mild or moderate. In the ATL1103-
severity of all adverse events [4]: mild to moderate
GHBP % change from pre-dose ([5]; Day 7): (0%)
GHBP mean change from pre-dose ([5]; Day 7): -31.2 pmol/L
GHBP % change from pre-dose ([5]; Day 21): (−16%)
GHBP mean change from pre-dose ([5]; Day 21): −169.5** pmol/L
GHBP % change from pre-dose ([5]; Day 28): (−19%)
GHBP mean change from pre-dose ([5]; Day 28): −233.3* pmol/L
reduction of GHBP ([5]; day 21, p=0.007): 16%
reduction of GHBP ([5]; day 28, one week past the last dose, p<0.05): 19%
AUClast ([6]; 25 mg): 3711 ± 822 ng·h/mL
Cmax ([6]; 25 mg): 466 ± 136 ng/mL
Tmax ([6]; 25 mg): 3.25 ± 0.5 h
AUClast ([6]; 75 mg): 21342 ± 4755 ng·h/mL
Cmax ([6]; 75 mg): 3139 ± 1576 ng/mL
Tmax ([6]; 75 mg): 3.25 ± 0.96 h
AUClast ([6]; 250 mg): 88942 ± 11295 ng·h/mL
Cmax ([6]; 250 mg): 12383 ± 3000 ng/mL
Tmax ([6]; 250 mg): 2.5 ± 1.29 h
AUClast ([6]; 400 mg): 151123 ± 29434 ng·h/mL
Cmax ([6]; 400 mg): 14343 ± 2823 ng/mL
Tmax ([6]; 400 mg): 3.25 ± 0.96 h
reduction in mean sIGF-I levels ([7]; 200 mg per week dose, week 14): no consistent reduction
mean reduction in sIGF-I compared to baseline ([7]; 400 mg per week (twice weekly 200 mg), 4 patients with acromegaly, week 14): 30%
mean reduction in sIGF-I compared to baseline ([7]; 400 mg per week, 3 patients with lower body weights (58-83 kg, below 85 kg), approx. 4.8-6.9 mg/kg, week 14): 38%
range of sIGF-I reduction ([7]; 400 mg per week, 3 patients with lower body weights, week 14): 28-48%
time course of sIGF-I (FIG. 1) ([7]; twice weekly 200 mg (400 mg per week), over the dosing period): progressive rate of reduction
reduction of liver GHr RNA (liver GHr RNA; [10]): 99%
reduction of liver GHr RNA (liver GHr RNA; [11]): 99.7%
% INHIB (inhibitory effect on hGHR mRNA levels) [8]: 79%
headache, number of events ([9]; Stage A, ATL1103-treated subjects): 5
influenza-like illness, number of events ([9]; Stage A, ATL1103-treated subjects (after single doses of 400 mg)): 2
influenza-like illness ([9]; after repeated doses of 250 mg): single doses of 400 mg ATL1103, this was not seen after repeated doses of 250 mg.
reduction of sIGF-I (serum IGF-I; ATL1103 25 mg/kg 2 times weekly monotherapy, week 1, compared to baseline control levels, p<0.013): 25%
reduction of sIGF-I (serum IGF-I; ATL1103 25 mg/kg, 2 times weekly, week 1, compared to control saline, p=0.0070): 36.5%
reduction of sIGF-I (serum IGF-I; ATL1103 25 mg/kg, 2 times weekly, week 2, compared to control saline, p=0.004): 41.5%
reduction of serum IGF-I (serum IGF-I; ATL1103 25 mg/kg, 2 times weekly, week 3, compared to saline control, p=0.003): 44.5%
reduction of liver IGF-I RNA (liver IGF-I RNA; [10]): 64.3%
reduction of liver IGF-I RNA (liver IGF-I RNA; [11]): 76.2%
effect on GH levels (growth hormone (GH)): no effect; also recorded: No treatment-related effects were apparent in growth hormone levels (data not shown)
